The test system of data set [1] is C57BL/6 mice. Put plainly: In vivo model of respiratory distress: Penh by noninvasive plethysmography after intranasal LPS. Further details: species or system mouse. Here is the method:
(§1) C57BL/6 mice received the vehicle alone (saline with 1.25% DMSO) or LPS (1 μg per mouse) from Escherichia coli (serotype […]; Sigma, St Louis, Mo., USA) in the absence or in the presence of PIM1 (SFPIM135) or of isoPIM1-2C16 (SFPIM91) (50 μg/mouse), applied by nasal instillation in a volume of 40 μl under light anesthesia with ketamine-xylazine.
The resistance of the respiratory tracts was evaluated by noninvasive plethysmography over a period of 3 hours after the application of LPS. Awake mice were placed in plethysmography chambers (EMKA Technologies, Paris, France). The increase in respiratory pause (Penh), as measurement of respiratory discomfort, was recorded and analyzed using the Datanalyst Software (EMKA Technologies, Paris, France), and expressed as mean±SEM of Penh of n=2-3 individual mice per group.
TNF is essential for LPS-induced acute respiratory dysfunction, as has been shown in TNF-deficient mice. In order to determine the potential in vivo activity of PIM1 (SFPIM135) and isoPIM1-2C16 (SFPIM91), they were tested for their inhibitory activity in a murine model of acute pulmonary inflammation and respiratory distress induced by intranasal application of LPS (1 μg/mouse).
C57BL/6 mice received an intranasal application of 1 μg of LPS, and Penh was recorded for 200 minutes using noninvasive plethysmography. […]

In data set [2] the test system is TNF-α. The data set is described as follows: TNF-α secretion by LPS-stimulated bone-marrow-derived primary macrophages (ELISA). The data set is classed as cell-based, mouse. The settings on record: LPS 100 ng/ml, 24 hours. How it is done: (§2) Murine bone marrow cells were obtained from femurs of wild-type mouse lines. The cells obtained were cultured (10^6/ml) for 7 days in DMEM medium (Dulbecco's modified Eagle's medium) supplemented with 20% of horse serum and 30% of L929 cell-conditioned medium. Three days after renewal of the medium, the cell preparation comprises a homogeneous population of macrophages.
(§3) The macrophages derived from the bone marrow of wild-type mice were cultured on 96-well culture plates in the proportion of 10^5 cells per well, and were then stimulated with LPS (100 ng/ml, Escherichia. coli, serotype O111:B4, Sigma) with or without PIM analog (1-10 μg/ml). All the freeze-dried PIM analog preparations used are solubilized in DMSO and added to the cultures at a noncytotoxic maximum final concentration of 1%.
(§4) After stimulation for 24 hours, the culture supernatants were collected and analyzed for their content of TNF-α, IL-6, IL-12p40 and KC cytokines by ELISA (Duoset, R&D) and for their nitrite content by means of the Griess reaction.
(§5) The macrophages derived from the bone marrow of wild-type mice were cultured on 96-well culture plates in a proportion of 10^5 cells per well, and then stimulated with LPS (100 ng/ml, Escherichia coli, serotype […], Sigma) with isoPIM1C16C18 (SFPIM219) (1-10 μg/ml) or a DMSO control. The preparation of freeze-dried SFPIM219 which is used is solubilized in DMSO and added to the cultures at a noncytotoxic maximum final concentration of 1%.
(§6) After stimulation for 24 hours, the culture supernatents were collected and analyzed for their content of cytokines TNF-α or IL-12p40 by ELISA (R&D Duoset, Minneapolis, Mo.). The results correspond to the mean±SD of n=2 mice per genotype.
(§7) The macrophages derived from the bone marrow of wild-type mice were cultured on 96-well culture plates in a proportion of 10^5 cells per well, and then stimulated with LPS (100 ng/ml, Escherichia coli, serotype O111:B4, Sigma) with PIM1 (SFPIM145), isoPIM1C16C18 (SFPIM219) or the compounds PIM-2-mimNCOCF3 (SFPIM324 t2) and PIM-2-mimNH(SFPIM324 t8) (titrated at 1, 3, 10, 30 μg/ml) or DMSO controls. The freeze-dried SFPIM145, SFPIM219, SFPIM324 t2 and SFPIM324 t8 preparations that were used are solubilized in DMSO and added to the cultures at a noncytotoxic maximum final concentration of 1%.

For data set [3], the system named is C57BL/6 mice. Put plainly: Inflammatory cell recruitment in bronchoalveolar lavage after intranasal LPS. It is filed as in vivo, mouse. Here is the method: as §1
(§8) The BAL fluid is collected by canulating the trachea and washing the lungs four times with 0.5 ml of cold PBS. After centrifugation at 400×g for 10 min at 4° C., the supernatant from the first lavage is stored at −70° C. for the cytokine analysis. Pools of cell pellets are counted with Trypan blue (Sigma) in a hemocytometer cell. For differential counting, the cells are stained with Diff-Quik Staining (Merz & Dade AG., Dudingen, Switzerland). Two times one hundred cells are counted.

The test system of data set [4] is KC. The data set is described as follows: KC in bronchoalveolar lavage fluid after intranasal LPS (ELISA). The data set is classed as in vivo. The settings on record: 24 hours after intranasal 1 μg LPS, coadministration 50 μg/mouse (FIG. 10). Here is the method: as §1, §8
(§9) The TNF and KC concentrations were evaluated by enzyme-linked immunosorbent assay (ELISA) in accordance with the instructions of the manufacturer (R&D Duoset, Minneapolis, Mo.).
Neutrophil recruitment depends on various factors, including chemokine KC, even though it is not critically dependent on TNF [23]. In FIG. 10, the treated mice are sacrificed 24 hours after the intranasal application of 1 μg of LPS and the bronchoalveolar fluid is analyzed in order to determine the chemokine KC content. […]
(An ELISA detects its analyte on a solid surface through an enzyme-linked reagent.)

The subject of data set [5] is TNF. The data set is described as follows: TNF in bronchoalveolar lavage fluid after intranasal LPS (ELISA). It is filed as in vivo. The settings on record: coadministration 50 μg/mouse (FIG. 11). How it is done: as §1, §8, §9
In data set [6] the test system is IL-12p40. The data set is described as follows: IL-12p40 secretion by LPS-stimulated primary macrophages (ELISA). It is filed as cell-based, mouse. Here is the method:
as §2, §3, §4, §5, §6, §7

The subject of data set [7] is IL-6. The data set is described as follows: IL-6 expression by primary macrophages stimulated with LPS with or without IFNγ (ELISA). It is filed as cell-based, mouse. The conditions noted are these: LPS in the presence or absence of interferon-γ, 10 μg/ml (FIG. 5). How it is done: as §2, §3, §4
For data set [8], the system named is KC. The data set is described as follows: Chemokine KC production by LPS-stimulated macrophages (ELISA). The conditions noted are these: 10 μg/ml (FIG. 7). It is filed as cell-based, mouse. How it is done:
as §2, §3, §4

Data set [9] deals with macrophages. The data set is described as follows: MTT cytotoxicity / cell viability assay on the same macrophages. The data set is classed as cell-based, mouse.
Data set [10] deals with inflammatory cytokines and chemokines. The data set is described as follows: Additional experiments: inflammatory cytokines and chemokines in lungs exposed to endotoxins. The data set is classed as in vivo.
Where [11] appears, read: titrated at 1, 3, 10, 30 μg/ml (FIG. 15).

Where only a bound is given, the exact number is not on record here.

“1-O-α-D-mannopyranosyl-2-O—[((S)-2,3-dipalmitoyloxy-propyl)phosphoryl]-D-myo-inositol [isoPIM1-2C16]”: in data set [1] (50 μg/mouse with LPS 1 μg/mouse, nasal instillation (FIG. 8)), the “enhancement of Penh induced by LPS” value is on record as “even more pronounced”. In addition, the “pulmonary inflammation and resistance of the respiratory tracts in response to local endotoxins” value in data set [1] (summary of the in vivo experiments) was “marked inhibition”. Further, the “TNF-α synthesis induced in LPS-stimulated macrophages” value in data set [2] (titrated at 1, 3 and 10 μg/ml (FIG. 3)) is reported as “strongly inhibits”. Besides, in data set [3] (18 hours after application of LPS, 50 μg/mouse intranasal (FIG. 9)), the “number of inflammatory cells detected in the BAL” value is “partially reduced”. The “reduction in the number of neutrophils” value in [3] (BAL, observed in 2 mice out of 3, 50 μg/mouse intranasal) was ≤ 70%. The “secretion of KC in the bronchoalveolar space” value in data set [4] is “greatly reduced”. Besides, the “release of TNF in the bronchoalveolar space” value in [5] was “more strongly”. In data set [6] (1 μg/ml (FIG. 6)), the “IL-12p40 secretion in response to LPS” value is reported as “inhibition”. The “expression of IL-6 by the macrophages” value in data set [7] is “also inhibited”. In [8], the “production of chemokine KC” value is “more strongly”. Moreover, in [9] (titrated at 1, 3 and 10 μg/ml (FIG. 4)), the “cytotoxicity (MTT)” value is listed as “absence of cytotoxicity”. The “expression of several other inflammatory cytokines and chemokines in lungs exposed to endotoxins” value in [10] is recorded as “decrease in expression”.
For `CCCCCCCCCCCCCCCCCC(=O)OC[C@@H](COP(=O)(O)OC1C(O[C@H]2O[C@H](CO)[C@@H](O)[C@H](O)[C@@H]2O)CN(C(=O)C(F)(F)F)CC1O[C@H]1O[C@H](CO)[C@@H](O)[C@H](O)[C@@H]1O)OC(=O)CCCCCCCCCCCCCCC` (stereo partly shown) [PIM-2-mimNCOCF3], the TNF secretion entry in data set [2] (setting [11]) is on record as “strongly inhibit”. Besides, the “IL-12p40 secretion in response to LPS” value in data set [6] (10 μg/ml (FIG. 17)) was “virtually abolished”.
In the case of `CCCCCCCCCCCCCCCCCC(=O)OC[C@@H](COP(=O)(O)O[C@@H]1[C@@H](O[C@H]2O[C@H](CO)[C@@H](O)[C@H](O)[C@@H]2O)CNC[C@H]1O[C@H]1O[C@H](CO)[C@@H](O)[C@H](O)[C@@H]1O)OC(=O)CCCCCCCCCCCCCCC` [PIM-2-mimNH], the TNF secretion entry in data set [2] (setting [11]) is on record as “inhibit less strongly”. Besides, in [6] (10 μg/ml (FIG. 17)), the “IL-12p40 secretion in response to LPS” value is recorded as “partially inhibit”. The “cytotoxicity (MTT cell viability)” value in data set [9] (at the highest concentration (FIG. 16)) was “a certain cytotoxicity”.
Turning to `CCCCCCCCCCCCCCCCCC(=O)OC[C@H](COP(=O)(O)O[C@@H]1[C@H](O)[C@@H](O)[C@H](O)[C@@H](O)[C@@H]1OC1O[C@H](CO)[C@@H](O)[C@H](O)[C@@H]1O)OC(=O)CCCCCCCCCCCCCCC` (stereo partly drawn) [isoPIM1-C16C18, 1-O-α-D-mannopyranosyl-2-O—[((S)-2-O-hexadecanoyl-3-O-octadecanoylpropyl)phosphoryl]-D-myo-inositol], the TNF secretion result in data set [2] (1-10 μg/ml (FIG. 12)) is reported as “strongly inhibits”; in data set [2] (setting [11]), “strongly inhibit”. For the same compound, the “IL-12p40 secretion in response to LPS” value was “greatly inhibited” in [6] (1 μg/ml (FIG. 14)) and “virtually abolished” in data set [6] (10 μg/ml (FIG. 17)). The “cytotoxicity on macrophages (MTT)” value in data set [9] (titrated at 1, 3 and 10 μg/ml (FIG. 13)) is given as “lack of cytotoxicity”.

These data come from patent US8846880B2, “Synthetic analogues of phosphatidyl-myo-inositol mannosides with an inhibitory activity of the inflammatory response” (Centre National de la Recherche Scientifique—CNRS—, priority 2008, dated 2014).
